The source of these data is patent publication US9573953B2, “Heteroaromatic compounds as PI3 kinase modulators and methods of use” (CALITOR SCIENCES, LLC, priority 2013, dated 2017).

Like-named read-outs stand apart in the source and are kept apart here.

Data set [1] in a line: Compound stability in human liver microsomes. The class given is in vitro ADME. The settings on record: for half-life at 5 μM / CLint scaled at 5 μM: pH 7.4; for CLint scaled at 5 μM: human liver microsomes, in vivo CLint extrapolated. The method, then:
(§1) Human or rat liver microsomes incubations were conducted in duplicate in polypropylene tubes. The typical incubation mixtures consisted of human or rat liver microsomes (0.5 mg protein/mL), compounds of interest (5 μM) and NADPH (1.0 mM) in a total volume of 200 μL potassium phosphate buffer (PBS, 100 mM, pH=7.4). Compounds were dissolved in DMSO and diluted with PBS such that the final concentration of DMSO was 0.05%. The enzymatic reactions were commenced with the addition of protein after a 3-min preincubation and incubated in a water bath open to the air at 37° C. Reactions were terminated at various time points (0, 5, 10, 15, 30, 60 min) by adding equal volume of ice-cold acetonitrile. The samples were stored at −80° C. until LC/MS/MS assays.
(§2) The concentrations of compounds in the incubation mixtures of human or rat liver microsomes were determined by a LC/MS/MS method. The ranges of the linearity in the concentration range were determined for each tested compounds.
(§3) A parallel incubation was performed using denatured microsomes as the negative control, and reactions were terminated at various time points (0, 15, 60 min) after incubation at 37° C.
(§4) Dextromethorphan (70 μM) was selected as the positive control, and reactions were terminated at various time points (0, 5, 10, 15, 30, 60 min) after incubation at 37° C. Both positive and negative control samples were included in each assay to ensure the integrity of the microsomal incubation system.
(§5) The concentrations of compounds in human or rat liver microsome incubations were plotted as a percentage of the relevant zero time point control for each reaction. The in vivo CLint were extrapolated (ref.: Naritomi Y, Terashita S, Kimura S, Suzuki A, Kagayama A, Sugiyama Y. “Prediction of human hepatic clearance from in vivo animal experiments and in vitro metabolic studies with liver microsomes from animals and humans”, Drug Metabolism and Disposition, 2001, 29, 1316-1324).

The nature of data set [2]: Pharmacokinetic profiles in rats. The settings on record: for F: oral dose generally 5 or 10 mg/kg; for Cl/F / AUC(0-t) / half-life / Vd: iv dosing; for AUC(0-t) / half-life / Vd: rat, plasma; for Vd: read-out: Vss. The class given is in vivo. The method, then:
The compounds disclosed herein are assessed in pharmacokinetic studies in mice, rats, dogs or monkeys. The compounds are administered as a water solution, 2% HPMC+1% TWEEN®80 in water solution, 5% DMSO+5% solutol in saline, 4% MC suspension or capsule. For the intravenous administration, the animals are generally given at 1 or 2 mg/kg dose. For the oral (p.o.) dosing, mice and rats are generally given 5 or 10 mg/kg dose, and dogs and monkeys are generally given 10 mg/kg dose. The blood samples (0.3 mL) are drawn at 0.25, 0.5, 1.0, 2.0, 3.0, 4.0, 6.0, 8.0, 12 and 24 h time points or 0.083, 0.25, 0.5, 1.0, 2.0, 4.0, 6.0, 8.0 and 24 h time points and centrifuged at 3,000 or 4000 rpm for 2 to 10 min. The plasma solutions are collected and stored at −20° C. or −70° C. until analyzed by LC/MS/MS as described above.

The nature of data set [3]: Compound stability in rat liver microsomes. The settings on record: for T1/2 / half-life at 5 μM: rat liver microsomes 0.5 mg protein/mL, compound 5 μM, NADPH, 37° C.; for half-life at 5 μM / CLint scaled at 5 μM: pH 7.4; for CLint scaled at 5 μM: rat liver microsomes, in vivo CLint extrapolated. The class given is in vitro ADME. The method, then: as §1, §2, §3, §4, §5

In data set [4] the target is T1, PI3K p110α/p85α (h) (Homo sapiens, UniProt P42336).
T1 construct: purchased Millipore UK Ltd (assays run there as a service)
Briefly: PI3K p110α/p85α (h) non-radioactive (HTRF) assay. The class given is biochemical. The method, then: PI3K p110α/p85α (h) [Non-Radioactive Assay]
(§6) PI3K p110α/p85α (h) is incubated in assay buffer containing 10 μM phosphatidylinositol 4,5-bisphosphate and MgATP (concentration as required). The reaction is initiated by the addition of the ATP solution. After incubation for 30 minutes at room temperature, the reaction is stopped by the addition of stop solution containing EDTA and biotinylated phosphatidylinositol-3,4,5-trisphosphate. Finally, detection buffer is added, which contains europium-labelled anti-GST monoclonal antibody, GST-tagged GRP1 PH domain and streptavidin allophycocyanin. The plate is then read in time-resolved fluorescence mode and the homogenous time-resolved fluorescence (HTRF) signal is determined according to the formula HTRF=10000×(Em665 nm/Em620 nm).
(§7) The kinase assays described herein were performed at Millipore UK Ltd, Dundee Technology Park, Dundee DD2 1SW, UK.

Data set [5] concerns the target T2, mTOR (h) (Homo sapiens, UniProt P42345).
T2 construct: purchased Millipore UK Ltd (assays run there as a service)
Briefly: mTOR (h) kinase assay. The class given is biochemical. The method, then: mTOR (h) is incubated with 50 mM HEPES pH 7.5, 1 mM EDTA, 0.01% TWEEN®20, 2 mg/mL substrate, 3 mM Manganese Chloride and [γ-^33P-ATP] (specific activity approx. 500 cpm/pmol, concentration as required). The reaction is initiated by the addition of the MnATP mix. After incubation for 40 minutes at room temperature, the reaction is stopped by the addition of 3% phosphoric acid solution. Aliquote of the reaction (10 μL) is then spotted onto a P30 filtermat and washed three times for 5 minutes in 75 mM phosphoric acid and once in methanol prior to drying and scintillation counting.
as §7

The target in data set [6] is T3, PI3K (p120γ) (h) (Homo sapiens, UniProt P48736).
T3 construct: purchased Millipore UK Ltd (assays run there as a service)
In words: PI3K (p120γ) (h) non-radioactive (HTRF) assay. The class given is biochemical. The method, then:
PI3K (p120γ) (h) [Non-Radioactive Assay]
as §6, with “(p120γ)” for “p110α/p85α”, “phosphatidylinositol-4,5-bisphosphate” for “phosphatidylinositol 4,5-bisphosphate”, “MgATP mix.” for “ATP solution.”, “streptavidin-allophycocyanin.” for “streptavidin allophycocyanin.”
as §7
Background: TR-FRET usually uses a lanthanide donor and a delayed reading to cut background.

Data set [7] has as its target T4, PI3K p110β/p85α (h) (Homo sapiens, UniProt P42338).
T4 construct: purchased Millipore UK Ltd (assays run there as a service)
Briefly: PI3K p110β/p85α (h) non-radioactive (HTRF) assay. The class given is biochemical. The method, then: PI3K p110β/p85α (h) [Non-Radioactive Assay]
as §6, with “(p110β/p85α)” for “p110α/p85α”, “phosphatidylinositol-4,5-bisphosphate” for “phosphatidylinositol 4,5-bisphosphate”, “MgATP mix.” for “ATP solution.”, “streptavidin-allophycocyanin.” for “streptavidin allophycocyanin.”
as §7

In data set [8] the target is T5, PI3K (p110δ/p85α) (h) (Homo sapiens, UniProt O00329).
T5 construct: purchased Millipore UK Ltd (assays run there as a service)
In words: PI3K (p110δ/p85α) (h) non-radioactive (HTRF) assay. The class given is biochemical. The method, then:
PI3K (p110δ/p85α) (h) [Non-Radioactive Assay]
as §6, with “(p110δ/p85α)” for “p110α/p85α”, “phosphatidylinositol-4,5-bisphosphate” for “phosphatidylinositol 4,5-bisphosphate”, “MgATP mix.” for “ATP solution.”, “streptavidin-allophycocyanin.” for “streptavidin allophycocyanin.”
as §7

[9] abbreviates: human liver microsomes 0.5 mg protein/mL, compound 5 μM, NADPH, 37° C.

T4 sequence (P42338 whole entry): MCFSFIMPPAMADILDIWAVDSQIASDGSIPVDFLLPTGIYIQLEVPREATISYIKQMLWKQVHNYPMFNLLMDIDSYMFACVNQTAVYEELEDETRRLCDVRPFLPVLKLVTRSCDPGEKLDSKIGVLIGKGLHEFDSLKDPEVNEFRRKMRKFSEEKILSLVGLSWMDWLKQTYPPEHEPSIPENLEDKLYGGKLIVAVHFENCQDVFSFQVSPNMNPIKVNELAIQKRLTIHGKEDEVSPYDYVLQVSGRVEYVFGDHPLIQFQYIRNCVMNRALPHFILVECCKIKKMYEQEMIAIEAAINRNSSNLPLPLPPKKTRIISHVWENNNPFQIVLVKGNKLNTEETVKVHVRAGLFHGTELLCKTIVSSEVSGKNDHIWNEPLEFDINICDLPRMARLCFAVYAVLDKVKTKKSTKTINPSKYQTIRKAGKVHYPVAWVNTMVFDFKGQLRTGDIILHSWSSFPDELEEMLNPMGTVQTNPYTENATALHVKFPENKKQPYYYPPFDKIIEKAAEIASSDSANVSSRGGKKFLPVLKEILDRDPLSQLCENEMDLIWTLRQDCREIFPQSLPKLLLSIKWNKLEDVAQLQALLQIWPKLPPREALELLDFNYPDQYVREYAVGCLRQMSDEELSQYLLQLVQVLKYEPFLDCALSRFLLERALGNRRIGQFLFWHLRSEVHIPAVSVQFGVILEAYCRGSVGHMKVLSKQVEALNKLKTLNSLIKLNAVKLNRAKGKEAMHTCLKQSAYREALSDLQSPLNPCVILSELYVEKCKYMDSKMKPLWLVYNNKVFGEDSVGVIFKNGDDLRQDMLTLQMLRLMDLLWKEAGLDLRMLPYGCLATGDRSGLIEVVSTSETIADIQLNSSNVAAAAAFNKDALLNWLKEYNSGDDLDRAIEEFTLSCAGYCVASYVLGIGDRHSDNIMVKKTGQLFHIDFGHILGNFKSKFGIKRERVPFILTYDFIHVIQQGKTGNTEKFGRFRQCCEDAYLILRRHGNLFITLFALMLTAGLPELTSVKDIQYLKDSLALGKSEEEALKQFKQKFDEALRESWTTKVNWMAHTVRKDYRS
T4 sequence (P27986 whole entry partner): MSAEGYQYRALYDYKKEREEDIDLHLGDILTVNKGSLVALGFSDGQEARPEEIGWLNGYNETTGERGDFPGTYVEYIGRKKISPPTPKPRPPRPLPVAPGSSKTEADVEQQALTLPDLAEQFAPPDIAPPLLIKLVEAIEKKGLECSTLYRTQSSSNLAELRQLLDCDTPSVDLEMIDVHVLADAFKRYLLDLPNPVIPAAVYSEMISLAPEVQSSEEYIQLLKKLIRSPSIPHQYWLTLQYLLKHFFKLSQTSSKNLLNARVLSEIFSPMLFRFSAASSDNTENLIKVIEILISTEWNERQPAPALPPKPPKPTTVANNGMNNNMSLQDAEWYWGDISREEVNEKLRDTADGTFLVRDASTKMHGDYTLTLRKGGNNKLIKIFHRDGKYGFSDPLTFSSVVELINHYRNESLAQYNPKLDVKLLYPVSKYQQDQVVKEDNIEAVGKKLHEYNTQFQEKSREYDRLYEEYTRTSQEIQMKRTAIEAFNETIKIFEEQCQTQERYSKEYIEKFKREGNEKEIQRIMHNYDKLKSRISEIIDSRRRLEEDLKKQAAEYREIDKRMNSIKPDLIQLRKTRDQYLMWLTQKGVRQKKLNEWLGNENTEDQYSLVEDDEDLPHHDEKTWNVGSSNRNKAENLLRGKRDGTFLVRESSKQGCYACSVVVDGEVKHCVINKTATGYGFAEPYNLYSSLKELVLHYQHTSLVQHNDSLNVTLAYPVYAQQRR
T5 sequence (O00329 whole entry): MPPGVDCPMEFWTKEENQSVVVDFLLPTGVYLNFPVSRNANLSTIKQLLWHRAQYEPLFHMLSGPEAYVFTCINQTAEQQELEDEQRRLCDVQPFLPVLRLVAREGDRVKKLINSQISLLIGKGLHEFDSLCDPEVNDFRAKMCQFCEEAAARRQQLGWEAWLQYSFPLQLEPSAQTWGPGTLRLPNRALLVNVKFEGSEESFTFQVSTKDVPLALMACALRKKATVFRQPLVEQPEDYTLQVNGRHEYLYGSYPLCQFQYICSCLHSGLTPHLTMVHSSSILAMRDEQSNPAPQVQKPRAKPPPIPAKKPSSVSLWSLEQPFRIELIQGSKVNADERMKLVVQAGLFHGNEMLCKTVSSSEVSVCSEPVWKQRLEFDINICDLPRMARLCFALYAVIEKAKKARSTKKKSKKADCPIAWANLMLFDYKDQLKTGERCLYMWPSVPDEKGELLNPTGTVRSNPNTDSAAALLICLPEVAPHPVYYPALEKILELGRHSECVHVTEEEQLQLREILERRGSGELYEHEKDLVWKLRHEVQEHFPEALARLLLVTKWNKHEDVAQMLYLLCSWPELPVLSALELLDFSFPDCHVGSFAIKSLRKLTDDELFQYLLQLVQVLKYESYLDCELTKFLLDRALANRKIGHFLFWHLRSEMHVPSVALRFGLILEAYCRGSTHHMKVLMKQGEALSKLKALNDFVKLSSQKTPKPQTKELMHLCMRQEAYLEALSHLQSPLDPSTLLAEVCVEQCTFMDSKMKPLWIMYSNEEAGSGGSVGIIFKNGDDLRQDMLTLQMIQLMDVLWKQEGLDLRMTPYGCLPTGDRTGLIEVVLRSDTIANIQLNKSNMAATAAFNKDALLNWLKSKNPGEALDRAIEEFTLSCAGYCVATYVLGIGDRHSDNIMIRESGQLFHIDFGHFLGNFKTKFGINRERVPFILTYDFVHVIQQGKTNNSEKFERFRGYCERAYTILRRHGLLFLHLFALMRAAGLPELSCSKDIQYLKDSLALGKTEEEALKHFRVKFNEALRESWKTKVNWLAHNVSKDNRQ
T5 sequence (P27986 whole entry partner): as the sequence (P27986 whole entry partner) above
T1 sequence (P42336 whole entry): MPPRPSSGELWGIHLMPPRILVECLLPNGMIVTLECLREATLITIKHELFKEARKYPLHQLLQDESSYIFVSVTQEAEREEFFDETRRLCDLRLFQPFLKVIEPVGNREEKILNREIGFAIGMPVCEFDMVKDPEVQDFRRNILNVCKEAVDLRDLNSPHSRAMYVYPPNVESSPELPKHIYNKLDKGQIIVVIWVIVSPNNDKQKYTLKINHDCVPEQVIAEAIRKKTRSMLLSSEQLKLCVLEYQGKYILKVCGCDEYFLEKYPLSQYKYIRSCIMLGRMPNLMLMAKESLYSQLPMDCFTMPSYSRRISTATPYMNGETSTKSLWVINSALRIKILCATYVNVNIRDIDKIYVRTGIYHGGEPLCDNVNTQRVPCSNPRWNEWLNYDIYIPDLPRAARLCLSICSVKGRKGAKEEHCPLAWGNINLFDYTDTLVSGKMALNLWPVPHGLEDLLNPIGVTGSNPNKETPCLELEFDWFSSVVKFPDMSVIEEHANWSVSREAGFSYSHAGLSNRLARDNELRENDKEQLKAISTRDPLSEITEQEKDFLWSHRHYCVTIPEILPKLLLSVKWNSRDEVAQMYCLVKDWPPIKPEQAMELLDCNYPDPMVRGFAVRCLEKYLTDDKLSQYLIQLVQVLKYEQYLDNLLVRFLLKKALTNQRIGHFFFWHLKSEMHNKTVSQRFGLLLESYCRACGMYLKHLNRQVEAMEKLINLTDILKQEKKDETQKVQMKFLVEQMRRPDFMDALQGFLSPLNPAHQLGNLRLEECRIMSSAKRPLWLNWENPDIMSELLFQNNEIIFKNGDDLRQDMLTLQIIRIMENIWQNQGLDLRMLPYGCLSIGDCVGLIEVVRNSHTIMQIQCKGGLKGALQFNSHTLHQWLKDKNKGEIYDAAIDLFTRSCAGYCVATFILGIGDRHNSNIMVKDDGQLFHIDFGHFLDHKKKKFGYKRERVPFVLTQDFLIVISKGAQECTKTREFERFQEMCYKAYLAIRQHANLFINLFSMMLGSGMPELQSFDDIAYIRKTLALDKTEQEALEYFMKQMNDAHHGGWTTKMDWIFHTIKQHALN
T1 sequence (P27986 whole entry partner): as the sequence (P27986 whole entry partner) above
T3 sequence (P48736 whole entry): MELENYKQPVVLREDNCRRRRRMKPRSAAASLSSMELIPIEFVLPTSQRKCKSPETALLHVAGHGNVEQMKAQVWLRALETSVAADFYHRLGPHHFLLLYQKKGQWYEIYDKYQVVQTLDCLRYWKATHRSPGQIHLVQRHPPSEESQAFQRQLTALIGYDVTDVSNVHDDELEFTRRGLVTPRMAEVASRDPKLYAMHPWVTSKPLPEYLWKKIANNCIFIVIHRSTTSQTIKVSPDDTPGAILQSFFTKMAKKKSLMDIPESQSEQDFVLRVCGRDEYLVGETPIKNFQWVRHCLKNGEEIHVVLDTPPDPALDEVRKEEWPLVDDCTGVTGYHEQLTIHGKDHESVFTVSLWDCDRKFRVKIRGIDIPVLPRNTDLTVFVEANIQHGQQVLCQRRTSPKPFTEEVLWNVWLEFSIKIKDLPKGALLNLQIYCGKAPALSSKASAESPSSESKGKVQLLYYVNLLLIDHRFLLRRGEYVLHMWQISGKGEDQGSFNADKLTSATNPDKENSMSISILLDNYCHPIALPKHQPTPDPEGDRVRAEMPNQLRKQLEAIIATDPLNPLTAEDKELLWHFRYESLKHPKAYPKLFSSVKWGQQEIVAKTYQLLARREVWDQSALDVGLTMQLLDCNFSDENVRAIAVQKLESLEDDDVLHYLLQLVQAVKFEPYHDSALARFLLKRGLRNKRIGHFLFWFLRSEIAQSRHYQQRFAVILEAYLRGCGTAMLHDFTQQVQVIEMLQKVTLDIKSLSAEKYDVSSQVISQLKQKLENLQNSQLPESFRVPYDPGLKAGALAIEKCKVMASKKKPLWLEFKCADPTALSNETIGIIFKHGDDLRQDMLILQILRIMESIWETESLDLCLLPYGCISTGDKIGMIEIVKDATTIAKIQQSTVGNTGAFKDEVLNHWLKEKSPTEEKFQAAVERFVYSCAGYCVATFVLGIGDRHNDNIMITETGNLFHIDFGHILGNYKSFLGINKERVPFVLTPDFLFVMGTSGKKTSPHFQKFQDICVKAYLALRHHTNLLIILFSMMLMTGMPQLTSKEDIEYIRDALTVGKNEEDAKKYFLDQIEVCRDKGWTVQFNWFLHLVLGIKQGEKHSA

In general, AUC(0-t) refers to exposure summed from dosing to a finite time, without extrapolation to infinity. The term half-life denotes how long it takes for the measured level to halve. The low end stands for fast loss, the high end for slow loss. As to `COc1ncc(-c2ccn3ncc(C#CC(C)(C)O)c3n2)cc1NS(=O)(=O)c1ccc(F)cc1F` [Ex. 6, 2,4-difluoro-N-(5-(3-(3-hydroxy-3-methylbut-1-yn-1-yl)pyrazolo[1,5-a]pyrimidin-5-yl)-2-methoxypyridin-3-yl)benzenesulfonamide], the T1/2 entry in data set [1] (setting [9]) is listed as “∞”. The compound also came in with a F in data set [2] (iv dose 1 mg/kg) of 50.80%. Further, in data set [2] (1 mg/kg), the Cl/F stood at 0.33 mL/min/kg, the AUC(0-t) is 40900 ng·h/mL, the half-life was 11 h and the Vd worked out at 0.24 L/kg. Also, in data set [3], the T1/2 result was “∞”.
The term CLint scaled denotes the capacity of the preparation to metabolise the compound, expressed as a volume cleared per time. In data set [1] (setting [9]), `COc1ncc(-c2ccn3ncc(C#CC(C)(C)O)c3c2)cc1NS(=O)(=O)c1ccc(F)cc1F` [Ex. 8, 2,4-difluoro-N-(5-(3-(3-hydroxy-3-methylbut-1-yn-1-yl)pyrazolo[1,5-a]pyridin-5-yl)-2-methoxypyridin-3-yl)benzenesulfonamide] returned a half-life at 5 μM of 130 h. Also, in data set [1], the CLint scaled at 5 μM was 0.22 mL/min/kg. In addition, the F in data set [2] (iv dose 1 mg/kg) is 103.40%. Besides, in data set [2] (1 mg/kg), the Cl/F stood at 0.33 mL/min/kg, the exposure AUC(0-t) was 41800 ng·h/mL, the half-life was 10.8 h and the Vd was determined as 0.28 L/kg. Besides, in data set [3], the half-life at 5 μM stood at 21 h and the CLint scaled at 5 μM was 1.97 mL/min/kg.
On to `CC#Cc1cnn2ccc(-c3cnc(OC)c(NS(=O)(=O)c4ccc(F)cc4F)c3)nc12` [Ex. 7, 2,4-difluoro-N-(2-methoxy-5-(3-(prop-1-yn-1-yl)pyrazolo[1,5-a]pyrimidin-5-yl)pyridin-3-yl)benzenesulfonamide], for which, in data set [1] (setting [9]), the half-life at 5 μM worked out at 55.7 h. In addition, in data set [1], the CLint scaled at 5 μM is 0.52 mL/min/kg. Also, the F in data set [2] (iv dose 1 mg/kg) is given as 80.10%. Also, in data set [2] (1 mg/kg), the Cl/F was 3.17 mL/min/kg, the AUC(0-t) is 5330 ng·h/mL, the half-life was 3.94 h and the Vd came out at 0.63 L/kg. In addition, in data set [3], the half-life at 5 μM is 1.54 h and the CLint scaled at 5 μM is 26.9 mL/min/kg.
As for `COc1ncc(-c2ccn3ncc(C#N)c3c2)cc1NS(=O)(=O)CC(F)(F)F` [Ex. 10, N-(5-(3-cyanopyrazolo[1,5-a]pyridin-5-yl)-2-methoxypyridin-3-yl)-2,2,2-trifluoroethanesulfonamide], the half-life at 5 μM in data set [1] (setting [9]) turned out to be 20.4 h. In data set [1], the CLint scaled at 5 μM is 2.03 mL/min/kg. The F in data set [2] (iv dose 1 mg/kg) was determined as 112.95%. In data set [2] (1 mg/kg), the Cl/F came out at 12.7 mL/min/kg, the AUC(0-t) came to 1240 ng·h/mL, the half-life is 2.74 h and the Vd was 1.72 L/kg. Besides, in data set [3], the T1/2 entry is on record as “∞”.
What is called IC50 is the concentration at which inhibition is half-maximal. For the compound `COc1ncc(-c2ccn3ncc(C#CC(C)O)c3n2)cc1NS(=O)(=O)c1ccc(F)cc1F` (centres unmarked) [Ex. 5, 2,4-difluoro-N-(5-(3-(3-hydroxybut-1-yn-1-yl)pyrazolo[1,5-a]pyrimidin-5-yl)-2-methoxypyridin-3-yl)benzenesulfonamide], the IC50 in data set [4] came out at 3 nM; in data set [5], 7 nM; in data set [6], 6 nM; in data set [7] it was 75 nM; in data set [8], 1 nM. Moreover, the half-life at 5 μM in data set [1] (setting [9]) is 5.05 h; in data set [3], 3.61 h. Besides, the CLint scaled at 5 μM in data set [1] is 5.74 mL/min/kg; in data set [3] it was 11.5 mL/min/kg. For the same compound, the F in data set [2] (iv dose 2 mg/kg) turned out to be 96.20%. Besides, the Cl/F in data set [2] (2 mg/kg) came to 0.83 mL/min/kg. In data set [2] (2 mg/kg), this compound returned an AUC(0-t) of 35200 ng·h/mL. Besides, the half-life in data set [2] (2 mg/kg) was 3 h. In data set [2] (2 mg/kg), the Vd was determined as 0.2 L/kg.
